In US7329682B2, “Method for inhibiting 5-lipoxygenase using a benzoxazole derivative” (EWHA University-Industry Collaboration Foundation, priority 2003, dated 2008) one finds IC50 and melting point data, which are given here for 22 molecules.

The IC50 is the midpoint of a concentration-inhibition curve. Broadly, the melting point is the temperature of the solid-liquid transition.

One data set addresses T1, 5-lipoxygenase (Mus musculus, UniProt P48999).
T1 construct: over 98% of cells were confirmed as mast cells originated from bone marrow; endogenous in cells; host or cells: bone marrow-derived mast cells from male BALB/cJ mice
T1 sequence (P48999 1-674): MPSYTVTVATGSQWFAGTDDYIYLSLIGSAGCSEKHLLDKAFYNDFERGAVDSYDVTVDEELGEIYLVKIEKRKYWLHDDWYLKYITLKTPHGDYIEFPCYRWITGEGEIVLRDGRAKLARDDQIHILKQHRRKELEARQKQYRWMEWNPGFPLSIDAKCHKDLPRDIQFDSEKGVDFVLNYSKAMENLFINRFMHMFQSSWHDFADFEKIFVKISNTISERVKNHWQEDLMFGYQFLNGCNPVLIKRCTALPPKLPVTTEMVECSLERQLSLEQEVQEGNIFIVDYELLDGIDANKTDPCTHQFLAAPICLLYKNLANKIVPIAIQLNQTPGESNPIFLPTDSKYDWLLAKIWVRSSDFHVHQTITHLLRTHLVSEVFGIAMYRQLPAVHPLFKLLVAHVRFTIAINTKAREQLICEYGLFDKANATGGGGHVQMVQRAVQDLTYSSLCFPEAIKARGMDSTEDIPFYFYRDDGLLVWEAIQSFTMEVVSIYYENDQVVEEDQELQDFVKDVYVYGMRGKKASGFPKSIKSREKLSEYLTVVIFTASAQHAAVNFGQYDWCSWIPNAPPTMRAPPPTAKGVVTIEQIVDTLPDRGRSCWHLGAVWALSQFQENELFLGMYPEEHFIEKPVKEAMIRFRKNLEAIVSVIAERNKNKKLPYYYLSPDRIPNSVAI
As to the kind of experiment: Measurement of 5-lipoxygenase inhibition activity (free LTC4 from SCF-stimulated bone marrow-derived mast cells, enzyme immunoassay). It is filed as cell-based, mouse (male BALB/cJ mice).
Details: not given
How it is done:
Measurement of 5-lipoxygenase Inhibition Activity
The obtained cells were suspended in the enriched medium to a concentration of 1×10^6 cells/ml. […] 100 ng/ml of stem cell factor (SCF) was added to the culture medium, and then, the culture was centrifuged at 120 xg for 20 min at 4° C. Then, the supernatant was separated and the amount of free LTC4 was determined using an LTC4 enzyme immunoassay kit (Cayman Chemical, Ann Arbor, Mich., U.S.A.). The stem cell factor (SCF) was recombinantly expressed by the baculovirus/insect cell expression system. After 20-min stimulation, the supernatants were isolated for further analysis by enzyme immunoassay.
The molecule `CCc1ccc(Nc2nc3cc(Cl)ccc3o2)cc1` [Example 9] gave an IC50 of 0.95 µM.
Same read-out and setting: under `O=[N+]([O-])c1ccc(-c2nc3ccccc3s2)cc1` [Example 14] stands 11 µM.

Still in this data set, the particulars now being: mast cells originated from bone marrow of BALB/cJ mice, 1×10^6 cells/ml; 30 min preincubation at 37° C.; 100 ng/ml SCF stimulation 20 min; free LTC4 by enzyme immunoassay; vs non-treated control; read-out: IC50.
`CCc1ccc(Nc2nc3cccnc3s2)cc1` [Example 2]: the half-maximal inhibitory concentration (IC50) was 10.3 µM.
On to `Clc1ccc(Nc2nc3cccnc3s2)cc1Cl` [Example 3], for which the IC50 came to 1.58 µM.
For the molecule `c1ccc(N=Nc2ccc(Nc3nc4ccccc4o3)cc2)cc1` [Example 4, 4-phenylazophenyl aminobenzoxazole], the IC50 turned out to be 6.28 µM.
Still for that read-out and setting: under `c1ccc(Nc2nc3ccccc3o2)cc1` [Example 5] stands 8.91 µM; under `CCc1ccc(Nc2nc3ccccc3o2)cc1` [Example 6], 1.21 µM; under `Clc1ccc2oc(Nc3ccc(N=Nc4ccccc4)cc3)nc2c1` [Example 7], 12.6 µM.
For `O=[N+]([O-])c1ccc2oc(Nc3ccc(N=Nc4ccccc4)cc3)nc2c1` [Example 10], the half-inhibitory concentration (IC50) amounted to 28.4 µM.
Regarding `CCc1ccc(Nc2nc3cc([N+](=O)[O-])ccc3o2)cc1` [Example 11], the IC50 came to 23.9 µM.
On to `c1ccc(-c2nc3ccccc3s2)cc1` [Example 12, 2-phenyl benzothiazole], for which the IC50 was 7.26 µM.
The same measure, in the same setting: to `Fc1ccc(-c2nc3ccccc3s2)cc1` [Example 13] belongs 11.2 µM; to `FC(F)Sc1ccccc1-c1nc2ccccc2s1` [Example 15], 1.54 µM.
Still for that read-out and setting: under `N#Cc1ccc(-c2nc3ccccc3s2)cc1` [Example 16] stands 4.32 µM.
On the same count and under the same terms, under `CCCCOc1ccc(-c2nc3ccccc3s2)cc1` [Example 17] stands 9.3 µM.
For the molecule `O=[N+]([O-])c1ccc(Cl)c(-c2nc3ccccc3s2)c1` [Example 18], the IC50 amounted to 2.5 µM.
With `Cc1ccc(-c2nc3ccccc3s2)cc1N` [Example 19], the IC50 is 4.16 µM.
In the case of `Cc1ccc(-c2nc3ccccc3s2)cc1` [Example 20], the IC50 was 5.27 µM.
On the same count and under the same terms, to `COc1ccc(-c2nc3ccccc3s2)cc1OC` [Example 21] belongs 2.76 µM; to `ClCc1cccc(-c2nc3ccccc3s2)c1` [Example 22], 2.49 µM.
Consider `CCSc1ncccc1-c1nc2ccccc2s1` [Example 23], for which the IC50 amounted to 6.11 µM.
The same measure, in the same setting: under `Clc1ccccc1/C=C/c1nc2ccccc2s1` [Example 25] stands 2.92 µM.

System in another data set: not given
Assay: not given
Details: not given
Molecule `Clc1ccc(Nc2nc3cccnc3s2)cc1Cl` [Example 3] yielded a melting point of 270 to 272 °C.
Still for that read-out and setting: under `CCc1ccc(Nc2nc3ccccc3o2)cc1` [Example 6] stands 123 to 125.3 °C; under `Clc1ccc2oc(Nc3ccc(N=Nc4ccccc4)cc3)nc2c1` [Example 7], 191 to 192.3 °C.
For `CCc1ccc(Nc2nc3cc(Cl)ccc3o2)cc1` [Example 9], the melting point was in the range of 196 to 198 °C.
In turn, `CCc1ccc(Nc2nc3cc([N+](=O)[O-])ccc3o2)cc1` [Example 11] registered a melting point of 161 to 163.5 °C.
Regarding `Fc1ccc(-c2nc3ccccc3s2)cc1` [Example 13], the melting point was in the range of 128 to 130.5 °C.
Same read-out and setting: under `FC(F)Sc1ccccc1-c1nc2ccccc2s1` [Example 15] stands 188 to 190 °C; under `N#Cc1ccc(-c2nc3ccccc3s2)cc1` [Example 16], 120 to 123 °C.
Same read-out and setting: under `COc1ccc(-c2nc3ccccc3s2)cc1OC` [Example 21] stands 132 to 133 °C.
